Reference: patent publication US9283222B2 (priority 2006, dated 2016)
Where two headings read alike, the source gives them in different places.

Biological target: Recombinant Human Poly(ADP-Ribose) Polymerase (PARP), PARP-1 (Homo sapiens (Human), UniProt P09874)
Settings: read-out: PARP-1 (Ki)
[1] = Table 1, text calls the values EC50s

Recombinant Human Poly(ADP-Ribose) Polymerase (PARP), PARP-1, sequence (P09874 whole entry): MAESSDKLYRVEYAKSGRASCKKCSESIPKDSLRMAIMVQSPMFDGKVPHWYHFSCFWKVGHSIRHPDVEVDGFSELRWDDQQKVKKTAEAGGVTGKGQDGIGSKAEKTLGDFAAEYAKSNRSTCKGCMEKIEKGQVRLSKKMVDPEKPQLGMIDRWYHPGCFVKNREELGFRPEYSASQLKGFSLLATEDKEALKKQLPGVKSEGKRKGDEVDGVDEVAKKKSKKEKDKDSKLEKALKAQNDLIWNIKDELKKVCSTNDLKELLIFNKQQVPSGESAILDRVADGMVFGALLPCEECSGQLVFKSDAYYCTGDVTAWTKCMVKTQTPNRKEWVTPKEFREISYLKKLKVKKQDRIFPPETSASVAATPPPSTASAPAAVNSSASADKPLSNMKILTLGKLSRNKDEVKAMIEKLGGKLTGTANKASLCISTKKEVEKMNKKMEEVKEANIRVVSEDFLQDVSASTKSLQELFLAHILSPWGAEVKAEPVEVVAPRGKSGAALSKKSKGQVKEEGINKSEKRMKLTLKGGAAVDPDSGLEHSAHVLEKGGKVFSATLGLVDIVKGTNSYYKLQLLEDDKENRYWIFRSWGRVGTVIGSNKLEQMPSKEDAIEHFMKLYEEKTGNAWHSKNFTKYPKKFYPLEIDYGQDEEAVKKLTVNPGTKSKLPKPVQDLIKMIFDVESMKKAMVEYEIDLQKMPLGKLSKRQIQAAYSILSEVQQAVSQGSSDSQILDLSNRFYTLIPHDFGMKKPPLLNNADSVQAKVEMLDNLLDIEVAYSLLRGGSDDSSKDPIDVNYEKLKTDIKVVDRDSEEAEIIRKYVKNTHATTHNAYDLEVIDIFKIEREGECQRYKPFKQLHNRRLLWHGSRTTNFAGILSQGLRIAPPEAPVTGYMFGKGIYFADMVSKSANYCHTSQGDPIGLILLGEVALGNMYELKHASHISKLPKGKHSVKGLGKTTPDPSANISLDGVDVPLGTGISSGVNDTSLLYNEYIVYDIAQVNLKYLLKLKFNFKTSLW

Row | SMILES | Ki [1] [nM] | Ki [nM]
1 | O=C(c1cncnc1)N1CCN(C(=O)c2cc(Cc3n[nH]c(=O)c4c3CCCC4)ccc2F)CC1 [Example 733, 4-(4-fluoro-3-{[4-(pyrimidin-5-ylcarbonyl)piperazin-1-yl]carbonyl}benzyl)-5,6,7,8-tetrahydrophthalazin-1(2H)-one] | 1.7 | 
2 | O=C(c1cc(Cc2n[nH]c(=O)c3c2CCCC3)ccc1F)N1CCN(Cc2cccc(Cl)c2)CC1 [Example 514, 4-(3-{[4-(3-chlorobenzyl)piperazin-1-yl]carbonyl}-4-fluorobenzyl)-5,6,7,8-tetrahydrophthalazin-1(2H)-one] | 9 | 
3 | O=C(c1cccc(Cc2n[nH]c(=O)c3c2CCCC3)c1)N(CCO)Cc1ccccc1 [Example 424, N-benzyl-N-(2-hydroxyethyl)-3-((4-oxo-3,4,5,6,7,8-hexahydrophthalazin-1-yl)methyl)benzamide] | 31 | 
4 | O=C1CCCN1c1cccc(Cc2n[nH]c(=O)c3c2CCCC3)c1 [Example 100, 4-(3-(2-oxopyrrolidin-1-yl)benzyl)-5,6,7,8-tetrahydrophthalazin-1(2H)-one] | 39 | 
5 | CN1CCC(CNC(=O)c2cccc(Cc3n[nH]c(=O)c4c3CCCC4)c2)CC1 [Example 79, N-((1-methylpiperidin-4-yl)methyl)-3-((4-oxo-3,4,5,6,7,8-hexahydrophthalazin-1-yl)methyl)benzamide] | 18 | 
6 | O=C(c1cccc(Cc2n[nH]c(=O)c3c2CCCC3)c1)N1CCN(c2ccccc2F)CC1 [Example 444, 4-(3-((4-(2-fluorophenyl)piperazin-1-yl)carbonyl)benzyl)-5,6,7,8-tetrahydrophthalazin-1(2H)-one] | 4 | 
7 | O=C(c1cc(Cc2n[nH]c(=O)c3c2NCCC3)ccc1F)N1CCN(CCN2CCCCC2)CC1 [Example 570, 8-(4-fluoro-3-{[4-(2-piperidin-1-ylethyl)piperazin-1-yl]carbonyl}benzyl)-2,3,4,6-tetrahydropyrido[2,3-d]pyridazin-5(1H)-one] | 8 | 
8 | O=C(NCCN1CCCCC1)c1cc(Cc2n[nH]c(=O)c3c2NCCC3)ccc1F [Example 486, 2-fluoro-5-((5-oxo-1,2,3,4,5,6-hexahydropyrido(2,3-d)pyridazin-8-yl)methyl)-N-(2-piperidin-1-ylethyl)benzamide] | 15 | 
9 | O=C(c1cc(Cc2n[nH]c(=O)c3c2CCCC3)ccc1F)N1CCN(c2ccc(F)cc2F)CC1 [Example 524, 4-(3-{[4-(2,4-difluorophenyl)piperazin-1-yl]carbonyl}-4-fluorobenzyl)-5,6,7,8-tetrahydrophthalazin-1(2H)-one] | 5 | 
10 | O=C(c1ccncc1)N1CCN(C(=O)c2cc(Cc3n[nH]c(=O)c4c3NCCC4)ccc2F)CC1 [Example 660, 8-{4-fluoro-3-[(4-isonicotinoylpiperazin-1-yl)carbonyl]benzyl}-2,3,4,6-tetrahydropyrido[2,3-d]pyridazin-5(1H)-one] | 1.4 | 
11 | CC1(C)SCNC1C(=O)N1CCN(C(=O)c2cc(Cc3n[nH]c(=O)c4c3NCCC4)ccc2F)CC1 (centres unmarked) [Example 692, 8-[3-({4-[(5,5-dimethyl-1,3-thiazolidin-4-yl)carbonyl]piperazin-1-yl}carbonyl)-4-fluorobenzyl]-2,3,4,6-tetrahydropyrido[2,3-d]pyridazin-5(1H)-one] | 1.6 | 
12 | O=C(CN1CCN(C(=O)c2cc(Cc3n[nH]c(=O)c4c3CCCC4)ccc2F)CC1)N1CCCC1 [Example 537, 4-(4-fluoro-3-{[4-(2-oxo-2-pyrrolidin-1-ylethyl)piperazin-1-yl]carbonyl}benzyl)-5,6,7,8-tetrahydrophthalazin-1(2H)-one] | 2.5 | 
13 | O=C(OCc1ccccc1)N1CCN(C(=O)c2cc(Cc3n[nH]c(=O)c4c3CCCC4)ccc2F)CC1 [Example 543, benzyl 4-{2-fluoro-5-[(4-oxo-3,4,5,6,7,8-hexahydrophthalazin-1-yl)methyl]benzoyl}piperazine-1-carboxylate] |  | 5
14 | CC(C)C(=O)N1CCN(C(=O)c2cc(Cc3n[nH]c(=O)c4c3CCCC4)ccc2F)CC1 [Example 579, 4-{4-fluoro-3-[(4-isobutyrylpiperazin-1-yl)carbonyl]benzyl}-5,6,7,8-tetrahydrophthalazin-1(2H)-one] | 1 | 
15 | O=C(c1cc(Cc2n[nH]c(=O)c3c2NCCC3)ccc1F)N1CCCN(C(=O)[C@@H]2CSCN2)CC1 [Example 701, 8-[4-fluoro-3-({4-[(4R)-1,3-thiazolidin-4-ylcarbonyl]-1,4-diazepan-1-yl}carbonyl)benzyl]-2,3,4,6-tetrahydropyrido[2,3-d]pyridazin-5(1H)-one] | 2.3 | 
16 | O=C(O)CNC(=O)Nc1cc(Cc2n[nH]c(=O)c3c2CCCC3)ccc1F [Example 625, N-[({2-fluoro-5-[(4-oxo-3,4,5,6,7,8-hexahydrophthalazin-1-yl)methyl]phenyl}amino)carbonyl]glycine] | 21 | 
17 | CC(c1cccc(-c2cccc(C(=O)NCCN(C)C)c2)c1)c1n[nH]c(=O)c2c1CCCC2 (centres unmarked) [Example 287, N-(2-(dimethylamino)ethyl)-3′-(1-(4-oxo-3,4,5,6,7,8-hexahydrophthalazin-1-yl)ethyl)-1,1′-biphenyl-3-carboxamide] | 771 | 
18 | CNC(=O)c1ccc(Cc2n[nH]c(=O)c3c2CCCC3)cn1 [Example 93, N-methyl-5-((4-oxo-3,4,5,6,7,8-hexahydrophthalazin-1-yl)methyl)pyridine-2-carboxamide] | 840 | 
19 | O=c1[nH]nc(CC2CNCCN2)c2c1CCCC2 (centres unmarked) [Example 261, 4-(piperazin-2-ylmethyl)-5,6,7,8-tetrahydrophthalazin-1(2H)-one] | 556 | 
20 | CCC(=O)N1CCN(C(=O)c2cc(Cc3n[nH]c(=O)c4c3NCCC4)ccc2F)CC1 [Example 597, 8-{4-fluoro-3-[(4-propionylpiperazin-1-yl)carbonyl]benzyl}-2,3,4,6-tetrahydropyrido[2,3-d]pyridazin-5(1H)-one] | 0.8 | 
21 | CCS(=O)(=O)N1CCN(C(=O)c2cc(Cc3n[nH]c(=O)c4c3CCCC4)ccc2F)CC1 [Example 586, 4-(3-{[4-(ethylsulfonyl)piperazin-1-yl]carbonyl}-4-fluorobenzyl)-5,6,7,8-tetrahydrophthalazin-1(2H)-one] | 1.1 | 

Next, values leading:

Row | Ki [1] [nM] | Ki [nM] | SMILES
22 | 98 |  | CCOc1ccc(C(=O)Nc2cccc(Cc3n[nH]c(=O)c4c3CCCC4)c2)cc1 [Example 228, 4-ethoxy-N-(3-((4-oxo-3,4,5,6,7,8-hexahydrophthalazin-1-yl)methyl)phenyl)benzamide]
23 | 259 |  | Cc1cccc(O)c1NC(=O)c1cccc(Cc2n[nH]c(=O)c3c2CCCC3)c1 [Example 348, N-(2-hydroxy-6-methylphenyl)-3-((4-oxo-3,4,5,6,7,8-hexahydrophthalazin-1-yl)methyl)benzamide]
24 | 124 |  | CC(=O)N[C@@H](CC(C)C)C(=O)Nc1cccc(Cc2n[nH]c(=O)c3c2CCCC3)c1 [Example 157]
25 | 26 |  | O=C(NCc1ccsc1)c1cccc(Cc2n[nH]c(=O)c3c2CCCC3)c1 [Example 310, 3-((4-oxo-3,4,5,6,7,8-hexahydrophthalazin-1-yl)methyl)-N-(thien-3-ylmethyl)benzamide]
26 | 626 |  | O=c1[nH]nc(Cc2cccc(NS(=O)(=O)c3cccs3)c2)c2c1CCCC2 [Example 120, N-(3-((4-oxo-3,4,5,6,7,8-hexahydrophthalazin-1-yl)methyl)phenyl)thiophene-2-sulfonamide]
27 | 48 |  | O=C(NCCc1cccc(Cl)c1)c1cccc(Cc2n[nH]c(=O)c3c2CCCC3)c1 [Example 389, N-(2-(3-chlorophenyl)ethyl)-3-((4-oxo-3,4,5,6,7,8-hexahydrophthalazin-1-yl)methyl)benzamide]
28 | 578 |  | O=c1[nH]nc(Cc2cccc(NS(=O)(=O)c3ccccc3)c2)c2c1CCCC2 [Example 116, N-(3-((4-oxo-3,4,5,6,7,8-hexahydrophthalazin-1-yl)methyl)phenyl)benzenesulfonamide]
29 | 50 |  | Cc1ccc(CCNC(=O)c2cccc(Cc3n[nH]c(=O)c4c3CCCC4)c2)cc1C [Example 397]
30 | 111 |  | Nc1cccc(Cc2n[nH]c(=O)c3c2CCCC3)c1 [Example 89, 4-(3-aminobenzyl)-5,6,7,8-tetrahydrophthalazin-1(2H)-one]
31 | 98 |  | O=C(Nc1cccc(Cc2n[nH]c(=O)c3c2CCCC3)c1)c1ccncc1 [Example 211, N-(3-((4-oxo-3,4,5,6,7,8-hexahydrophthalazin-1-yl)methyl)phenyl)isonicotinamide]
32 | 125 |  | COc1ccc(OC)c(CCC(=O)Nc2cccc(Cc3n[nH]c(=O)c4c3CCCC4)c2)c1 [Example 144, 3-(2,5-dimethoxyphenyl)-N-(3-((4-oxo-3,4,5,6,7,8-hexahydrophthalazin-1-yl)methyl)phenyl)propanamide]
33 | 56 |  | O=C(CCCc1cccs1)Nc1cccc(Cc2n[nH]c(=O)c3c2CCCC3)c1 [Example 154, N-(3-((4-oxo-3,4,5,6,7,8-hexahydrophthalazin-1-yl)methyl)phenyl)-4-thien-2-ylbutanamide]
34 | 87 |  | Cc1cc(NC(=O)c2cccc(Cc3n[nH]c(=O)c4c3CCCC4)c2)ccc1Cl [Example 343, N-(4-chloro-3-methylphenyl)-3-((4-oxo-3,4,5,6,7,8-hexahydrophthalazin-1-yl)methyl)benzamide]
35 | 279 |  | Cc1cc(F)ccc1NC(=O)c1cccc(Cc2n[nH]c(=O)c3c2CCCC3)c1 [Example 340, N-(4-fluoro-2-methylphenyl)-3-((4-oxo-3,4,5,6,7,8-hexahydrophthalazin-1-yl)methyl)benzamide]
36 | 82 |  | Cc1ccc(CCNC(=O)c2cccc(Cc3n[nH]c(=O)c4c3CCCC4)c2)c(C)c1 [Example 398, N-(2-(2,4-dimethylphenyl)ethyl)-3-((4-oxo-3,4,5,6,7,8-hexahydrophthalazin-1-yl)methyl)benzamide]
37 | 185 |  | CC(C)Oc1ccc(C(=O)Nc2cccc(Cc3n[nH]c(=O)c4c3CCCC4)c2)cc1 [Example 188, 4-isopropoxy-N-(3-((4-oxo-3,4,5,6,7,8-hexahydrophthalazin-1-yl)methyl)phenyl)benzamide]
38 | 64 |  | COc1cccc(CCC(=O)Nc2cccc(Cc3n[nH]c(=O)c4c3CCCC4)c2)c1 [Example 161, 3-(3-methoxyphenyl)-N-(3-((4-oxo-3,4,5,6,7,8-hexahydrophthalazin-1-yl)methyl)phenyl)propanamide]
